# Results: article PMC4900597, “Evaluation of the Effects of Pasireotide LAR Administration on Lymphocele Prevention after Axillary Node Dissection for Breast Cancer: Results of a Randomized Non-Comparative Phase 2 Study” (PLoS ONE, 2016)
# Starred links: 1 amine or outer side, 2 acyl side, 3 side chain; linkers in the order of their positions; H or OH if unused. Non-standard residues stand in square brackets, D forms with d. Residues, ends and D or L forms follow the SMILES beside them. Groups on a side chain read outwards from the residue. *: point of attachment. Ethylenediamine = C(CN[*:2])N[*:1]; Hyp = O=C(O)[C@@H]1C[C@@H](O)CN1; Phg = N[C@H](C(=O)O)c1ccccc1; CO = O=C([*:1])[*:2]; Bn = c1ccc(C*)cc1
# Key:
# sst4 = test system: sst4; set-up: method as in PMID 11980628; conditions: ref [14]; cited from earlier work
# Source text: Pasireotide is an injectable somatostatin analog. […] The five somatostatin receptors (sst 1 to 5) are expressed in various organs under normal physiological conditions. Somatostatin analogs activate these receptors, which in turn reduce cell activity and inhibit hormone synthesis. Octreotide and lanreotide, which are currently used, have strong affinities for the sst2 receptor and moderate affinities, if any, for the other receptor types.
# sst1 = conditions: ref [14]; cited from earlier work
# Source text: (§1) The five somatostatin receptors (sst 1 to 5) are expressed in various organs under normal physiological conditions. Somatostatin analogs activate these receptors, which in turn reduce cell activity and inhibit hormone synthesis. Octreotide and lanreotide, which are currently used, have strong affinities for the sst2 receptor and moderate affinities, if any, for the other receptor types.
# [1] = cited from earlier work
# Description: Differences between the results reported by Carcoforo [10] and Mahmoud and our results could be partially explained. First, the clinical practices were different. In our practice, drains were removed before the seventh post-operative day, whereas in the studies by Carcoforo [10] and Mahmoud^11 the mean duration of drainage was between 7 and 25 days. Second, the other authors both used octreotide 0.1 mg three times a day subcutaneously for 5 [10] or 7 [11] days, starting on the first postoperative day. In our study, we chose a long-acting release formulation of pasireotide (pasir ... || The gradual release form must be injected intramuscularly prior to surgery. An effective plateau concentration is obtained after 10 days regardless of the selected dosage (20, 40, or 60 mg) (3).
# [2] = test system: female patients undergoing mastectomy with axillary lymph node dissection for breast cancer; test: Phase 2 trial, secondary endpoints: post-operative course (drainage, aspirations, healing, hospital stay); format: in vivo, human
# sst5 = test system: sst5; set-up: method as in PMID 11980628; conditions: ref [14]; cited from earlier work
# Source text: as §1
# sst3 = test system: sst3; set-up: method as in PMID 11980628; conditions: ref [14]; cited from earlier work
# Source text: as §1
# [3] = test system: female patients undergoing mastectomy with axillary lymph node dissection for breast cancer; test: Phase 2 trial, safety / adverse events; format: in vivo, human; conditions: treatment group; patient with insulin-dependent diabetes hospitalised for hyperglycaemia
# Description: The screening was performed during the pre-surgical visit. At the baseline visit (V1) 7 to 10 days prior to surgery, patients signed the informed consent, and pasireotide or the placebo were injected. In addition, a blood sample for pharmacokinetic monitoring was taken. On the day of surgery or the day after surgery (V2), data concerning the operation (type of surgery, duration, intraoperative complications, type and number of drains) and recording of adverse events were performed. On the day of discharge (V3), the summary of the daily collection of postoperative data was completed (daily and total drainage volumes, dates on which drains were removed and overall duration of drainage, postoperative complications, whether aspiration of a symptomatic lymphocele was required, length of hospital stay and recording of adverse events).
# A second blood sample for pharmacokinetic monitoring was taken during this visit.
# Follow-up visits at 2 months (V6) allowed the recording of late adverse events.
# [4] = test system: female patients undergoing mastectomy with axillary lymph node dissection for breast cancer; test: Phase 2 randomised trial, primary outcome: absence of post-operative axillary symptomatic lymphocele; conditions: versus placebo group
# Description: All female patients for whom mastectomy and ALND were indicated were eligible for the study, including patients who had received neo-adjuvant chemotherapy. Main exclusion criteria were related to diabetes, cardiac insufficiency, disorder of cardiac conduction or hepatic failure. […] This choice of these variables was decided because they could influence the rate of post-operative lymphocele and so created bias. Randomization was carried out by the Statistics Team at Hôpital Saint Louis in charge of the project (only one randomization list for both centers). […]
# The postoperative visit was 28 ± 4 days following surgery (V5), and a routine lymphocele aspiration was warranted and considered positive if the aspirated volume exceeded 120 cc. Again, data on the number of repeated lymphocele aspirations and the volume were collected, and adverse events were recorded.
# The primary motivation for this sequential Bayesian strategy were: (1) the uncertainty about the effect of the procedure, (2) the small sample and (3) it allows continuous monitoring of outcomes throughout the trial. […] Additionally, based on the subsequent distribution experimental group, early stopping criteria were calculated to allow early termination of the trial for inefficacy if there was substantial evidence that the estimated response rate was unacceptably low compared to the expected minimal response rate of 60%. […]
# [5] = test system: patients after axillary node dissection in breast cancer; set-up: method as in PMID 17214811; conditions: p = 0.0001, ref [11], cited from earlier work
# sst2 = test system: sst2; set-up: method as in 2 sources, ref [14] = [14]; PMID 11980628; doi:10.1530/eje.0.1460707; 14 Bruns C , Lewis I , Briner U , Meno-Tetang G , Weckbecker G . SOM230: a novel somatostatin peptidomimetic with broad somatotropin release inhibiting factor (SRIF) receptor binding and a unique anti ||| ref [14] (a number printed in a supplementary file, which may have a reference list of its own: not looked up in the article's list); conditions: ref [14]; cited from earlier work
# Source text: The five somatostatin receptors (sst 1 to 5) are expressed in various organs under normal physiological conditions. Somatostatin analogs activate these receptors, which in turn reduce cell activity and inhibit hormone synthesis. Octreotide and lanreotide, which are currently used, have strong affinities for the sst2 receptor and moderate affinities, if any, for the other receptor types. […] Like natural somatostatin and known analogs, its pharmaceutical efficacy depends on its binding to somatostatin receptors. There are five of these (sst 1 to 5); they are expressed in various bodily tissues under normal physiological conditions. Somatostatin analogs activate these receptors, which in turn reduce cell activity and inhibits hormone synthesis. (7). Octreotide and lanreotide, which are currently used, have a strong affinity for the sst2 receptor and moderate affinity, if any, for the other types.
# [6] = test system: renal transplantation patients; set-up: method as in PMID 16757259; conditions: patients treated with octreotide; ref [22]; cited from earlier work
# [7] = test system: patients after axillary node dissection in breast cancer; set-up: method as in PMID 12648685; conditions: p = 0.0001, ref [10], cited from earlier work
# [8] = test system: women with breast cancer undergoing ALND; conditions: compared to placebo, p = 0.035; ref [12]; cited from earlier work
# Description: More recently, Gauthier et al. have reported the results of a phase 3, double-blind, randomized study using Lanreotide Autogel 90 mg LAR to reduce lymphorrhea volumes in the axillary drain during the first 4 postoperative days.
# [9] = pasireotide LAR 40 and 60 mg, ref [21]
compound,measurement,setting,value
NCCCC[C@@H]1NC(=O)[C@@H](Cc2c[nH]c3ccccc23)NC(=O)[C@H](c2ccccc2)NC(=O)[C@@H]2C[C@@H](OC(=O)NCCN)CN2C(=O)[C@H](Cc2ccccc2)NC(=O)[C@H](Cc2ccc(OCc3ccccc3)cc2)NC1=O [Pasireotide] (cyclo([Hyp]([CO-Ethylenediamine])[Phg][dW]KY(Bn)F)),Affinity for sst4,sst4,none
same,Affinity for sst1 relative to octreotide,sst1,30 times greater
same,Time to effective plateau concentration,"[1]; gradual release form i.m., regardless of dosage (20, 40, or 60 mg), ref (3) Schmid et al AACE 2005",10 days
same,Time of first concentration peak after administration,[1]; [9],1 days
same,Time of second slow-release peak with maximum concentrations,[1]; [9],~20 days
same,Day from which the effect was obtained after injection,"[1]; pasireotide LAR, ref [21]",seventh
same,Duration for which the effect remained,"[1]; pasireotide LAR, ref [21]",up to 30 days
same,Residual concentration at day 28,"[1]; patients with neuroendocrine tumors, ref [23]",16.5 ng/mL
same,Daily flow axillary drain,"[2]; Fig 3, Day 1",50 mL
same,Daily flow mastectomy drain,"[2]; Fig 3, Day 1","52,5 ml"
same,Daily flow axillary drain,"[2]; Fig 3, Day 2",50 mL
same,Daily flow mastectomy drain,"[2]; Fig 3, Day 2",40 mL
same,Daily flow axillary drain,"[2]; Fig 3, Day 3",65 mL
same,Daily flow mastectomy drain,"[2]; Fig 3, Day 3",38 mL
same,Daily flow axillary drain,"[2]; Fig 3, Day 4",50 mL
same,Daily flow mastectomy drain,"[2]; Fig 3, Day 4",40 mL
same,Daily flow axillary drain,"[2]; Fig 3, Day 5",75 mL
same,Daily flow mastectomy drain,"[2]; Fig 3, Day 5",41 mL
same,Daily flow axillary drain,"[2]; Fig 3, Day 6",50 mL
same,Daily flow mastectomy drain,"[2]; Fig 3, Day 6",40 mL
same,Daily flow axillary drain,"[2]; Fig 3, Day 7",35 mL
same,Daily flow mastectomy drain,"[2]; Fig 3, Day 7",30 mL
same,Length of time to onset of adjuvant chemotherapy,[2]; median [IQR],"54 [37.5,60] days"
same,"Repeated lymphocele aspirations, total volume",[2]; median [IQR],"270 [135,415] ml"
same,"Duration of drainage, axillary drain","[2]; median [IQR], n = 42","3 [2,5] days"
same,"Duration of drainage, mastectomy drain","[2]; median [IQR], n = 42","2.5 [1.75,4] days"
same,Length of the hospital stay,"[2]; median [IQR], n = 42","5 [4,6] days"
same,"Total flow, axillary drain","[2]; median [IQR], n = 42","165 [81,400.2] ml"
same,"Total flow, mastectomy drain","[2]; median [IQR], n = 42","132.5 [55.5,226] ml"
same,Patients who underwent systematic lymphocele aspiration on day 28,[2]; treatment group,Twelve
same,Affinity for sst5 relative to octreotide,sst5,40 times greater
same,Affinity for sst3 relative to octreotide,sst3,5 times greater
same,Serious adverse events,[3],one
same,Decrease in symptomatic lymphocele development in treated patients,[4],12.2%
Octreotide,Need for postoperative aspiration of lymphoceles,[5]; control 90%,40%
same,Mean daily drainage volume,[5]; control 145 ml,104 mL
same,Total duration of drainage,[5]; control 25 days,12.7 days
same,Affinity for sst4,sst4,none
same,"Affinity for the sst2 receptor, in words",sst2,strong
same,Duration of lymphatic leakage following transplantation,[6],shorter duration
same,Incidence of lymphocele formation after drain removal,[6],lower incidence
same,Daily drainage volume,"[7]; subcutaneous octreotide in immediate postoperative period, untreated group 94.6 ml",65.4 mL
same,Time of drain removal after surgery,[7]; untreated group 16.7 days,7.1 days
lanreotide,"Affinity for the sst2 receptor, in words",sst2,strong
same,"Lymphorrhea volume, patients who only underwent an axillary dissection",[8],significantly reduced
